For one test, the system named is TNFα. The test is described as follows: IRAK4 Monocyte TNFα Cell Based Assay (LPS-stimulated, TR-FRET TNFα detection). Also noted: species or system human. Particulars: Homo sapiens, Monocyte, read-out: EC50 MONO TNF HTRF. In outline: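 Monocytes (5,000 cells/well) treated with compound (0.1% DMSO) for 1 hour at 37° C, then stimulated with 50 pg/ml LPS for 4 hours. TNFα in medium quantified by TR-FRET two-antibody detection after overnight room-temperature incubation. Percent of control calculated against unstimulated (0%) and LPS-stimulated (100%) cells.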
A general note: TR-FRET usually uses a lanthanide donor and a delayed reading to cut background.

A further test addresses T1, IRAK4 enzyme (Homo sapiens, UniProt Q9NWZ3).
T1 construct: purchased Carna Biosciences, Chuo-ku, Kobe, Japan
T1 sequence (Q9NWZ3 1-460): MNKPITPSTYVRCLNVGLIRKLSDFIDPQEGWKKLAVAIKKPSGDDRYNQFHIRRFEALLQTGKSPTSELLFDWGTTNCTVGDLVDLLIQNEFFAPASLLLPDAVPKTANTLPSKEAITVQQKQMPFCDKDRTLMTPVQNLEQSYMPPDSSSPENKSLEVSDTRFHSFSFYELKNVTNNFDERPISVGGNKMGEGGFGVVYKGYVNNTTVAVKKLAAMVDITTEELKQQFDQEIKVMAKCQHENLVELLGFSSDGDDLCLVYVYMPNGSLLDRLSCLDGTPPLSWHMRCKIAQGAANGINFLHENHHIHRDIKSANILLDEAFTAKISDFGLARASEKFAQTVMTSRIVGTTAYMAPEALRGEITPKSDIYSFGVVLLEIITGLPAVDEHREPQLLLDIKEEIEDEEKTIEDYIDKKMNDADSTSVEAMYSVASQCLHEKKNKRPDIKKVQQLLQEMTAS
The test is described as follows: IRAK4 Biochemical Assay (TR-FRET, STK1 KinEASE). The settings on record: 500 μM ATP, Table 2 second part (compounds 33-343), read-out: IC50 IRAK4-HTBS. The essentials:
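Human IRAK4 (0.75 nM) preincubated 15 min with compound and 2 μM STK1 peptide, then reacted 120 min at room temperature with 500 μM ATP in HEPES pH 7.0 buffer with MgCl2 and DTT. EDTA stop with Cryptate anti-phosphopeptide antibody and tracer, 60 min; TR-FRET read as 665/615 nm ratio.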

Where [1] appears, read: human monocytes, LPS-stimulated, Table 2 second part (compounds 33-343).

Read-outs that look alike come from different tables or passages of the source.

Take `CC(=O)N[C@@H]1[C@@H]2C[C@H]1CN(c1nnc(-c3cnc(-c4ccc5cc(C#N)cnn45)cc3N[C@H](C)C#N)s1)C2` [Example 174, N-((1R,5S,6S)-3-(5-(4-(((R)-1-cyanoethyl)amino)-6-(3-cyanopyrrolo[1,2-b]pyridazin-7-yl)pyridin-3-yl)-1,3,4-thiadiazol-2-yl)-3-azabicyclo[3.1.1]heptan-6-yl)acctamide]: the concentration for a half-maximal effect (EC50) in the test with TNFα was 3.5 nM. On IRAK4 enzyme, the IC50 was 0.49 nM.

Turning to `CC(=O)N[C@@H]1[C@@H]2C[C@H]1CN(c1nnc(-c3cnc(-c4ccc5cc(C#N)cnn45)cc3NC3(C)COC3)s1)C2` [Example 175, N-((1R,5S,6s)-3-(5-(6-(3-cyanopyrrolo[1,2-b]pyridazin-7-yl)-4-((3-methyloxetan-3-yl)amino)pyridin-3-yl)-1,3,4-thiadiazol-2-yl)-3-azabicyclo[3.1.1]heptan-6-yl)acetamide], the EC50 in the test with TNFα came out at 9 nM. Also, the half-maximal inhibitory concentration (IC50) at IRAK4 enzyme was 0.57 nM.

With `CNc1cc(-c2ccc3cc(C#N)cnn23)ncc1-c1nnc(N2C[C@H]3C[C@@H](C2)[C@@H]3NC(C)=O)s1` [Example 176, N-((1R,5S,6s)-3-(5-(6-(3-cyanopyrrolo[1,2-b]pyridazin-7-yl)-4-(methylamino)pyridin-3-yl)-1,3,4-thiadiazol-2-yl)-3-azabicyclo[3.1.1]heptan-6-yl)acetamide], the EC50 with TNFα was 23.5 nM. Besides, the 50% inhibitory concentration (IC50) on IRAK4 enzyme was 0.76 nM.

As for `CC(=O)N[C@@H]1[C@@H]2C[C@H]1CN(c1nnc(-c3cnc(-c4ccc5cc(C#N)cnn45)cc3NC3COC3)s1)C2` [Example 179, N-((1R,5S,6s)-3-(5-(6-(3-cyanopyrrolo[1,2-b]pyridazin-7-yl)-4-(oxetan-3-ylamino)pyridin-3-yl)-1,3,4-thiadiazol-2-yl)-3-azabicyclo[3.1.1]heptan-6-yl)acetamide], the EC50 in the test with TNFα came out at 6.4 nM. In addition, the 50% inhibitory concentration (IC50) on IRAK4 enzyme stood at 0.37 nM.

For the compound `CC(=O)N[C@H]1[C@@H]2COC[C@H]1CN(c1nnc(-c3cnc(-c4ccc5cc(C#N)cnn45)cc3NC(C)C)s1)C2` [Example 182, N-((1R,5S,9r)-7-(5-(6-(3-cyanopyrrolo[1,2-b]pyridazin-7-yl)-4-(isopropylamino)pyridin-3-yl)-1,3,4-thiadiazol-2-yl)-3-oxa-7-azabicyclo[3.3.1]nonan-9-yl)acetamide], the EC50 in the test on TNFα (setting [1]) is 37.8 nM. The IC50 at IRAK4 enzyme stood at 0.53 nM.

For the compound `CC(=O)N[C@@H]1[C@@H]2CC[C@H]1CN(c1nnc(-c3cnc(-c4ccc5cc(C#N)cnn45)cc3NC3COC3)s1)C2` [Example 184, N-((1R,5S,8s)-3-(5-(6-(3-cyanopyrrolo[1,2-b]pyridazin-7-yl)-4-(oxetan-3-ylamino)pyridin-3-yl)-1,3,4-thiadiazol-2-yl)-3-azabicyclo[3.2.1]octan-8-yl)acetamide], the 50% effective concentration (EC50) with TNFα (setting [1]) turned out to be 2.4 nM. Moreover, the half-maximal inhibitory concentration (IC50) at IRAK4 enzyme is 0.54 nM.

As to `CC(C)Nc1cc(-c2ccc3cc(C#N)cnn23)ncc1-c1nnc([C@H]2C[C@@](C)(O)C2)s1` [Example 199, 7-(5-(5-((1s,3s)-3-hydroxy-3-methylcyclobutyl)-1,3,4-thiadiazol-2-yl)-4-(isopropylamino)pyridin-2-yl)pyrrolo[1,2-b]pyridazine-3-carbonitrile], the 50% effective concentration (EC50) in the test with TNFα (setting [1]) worked out at 38.3 nM. Also, the half-inhibitory concentration (IC50) on IRAK4 enzyme came to 0.69 nM.

Take `C[C@]1(O)C[C@@H](c2nnc(-c3cnc(-c4ccc5cc(C#N)cnn45)cc3NC3COC3)s2)C1` [Example 200, 7-(5-(5-((1s,3s)-3-hydroxy-3-methylcyclobutyl)-1,3,4-thiadiazol-2-yl)-4-(oxetan-3-ylamino)pyridin-2-yl)pyrrolo[1,2-b]pyridazine-3-carbonitrile]: the 50% effective concentration (EC50) in the test on TNFα (setting [1]) turned out to be 24.1 nM. In addition, at IRAK4 enzyme, the half-inhibitory concentration (IC50) is 0.63 nM.

With `CC(=O)N[C@H]1C[C@H](c2nnc(-c3cnc(-c4ccc5cc(C#N)cnn45)cc3NC3CCOCC3)s2)C1` [Example 201, N-((1r,3r)-3-(5-(6-(3-cyanopyrrolo[1,2-b]pyridazin-7-yl)-4-((tetrahydro-2H-pyran-4-yl)amino)pyridin-3-yl)-1,3,4-thiadiazol-2-yl)cyclobutyl)acetamide], the EC50 with TNFα (setting [1]) worked out at 34.9 nM. For the same compound, the IC50 at IRAK4 enzyme worked out at 1.17 nM.

For `CC(=O)N[C@H]1C[C@H](c2nnc(-c3cnc(-c4ccc5cc(C#N)cnn45)cc3NC3COC3)s2)C1` [Example 202, N-((1r,3r)-3-(5-(6-(3-cyanopyrrolo[1,2-b]pyridazin-7-yl)-4-(oxctan-3-ylamino)pyridin-3-yl)-1,3,4-thiadiazol-2-yl)cyclobutyl)acetamide], the EC50 in the test with TNFα (setting [1]) is 166 nM. Besides, the IC50 at IRAK4 enzyme stood at 1.23 nM.

For `N#Cc1cnn2c(-c3cc(NC4COC4)c(-c4nnc([C@H]5CC[C@@H](NC(=O)C6CC6)CC5)s4)cn3)ccc2c1` [Example 203, N-((1s,4s)-4-(5-(6-(3-cyanopyrrolo[1,2-b]pyridazin-7-yl)-4-(oxetan-3-ylamino)pyridin-3-yl)-1,3,4-thiadiazol-2-yl)cyclohexyl)cyclopropanecarboxamide], the concentration for a half-maximal effect (EC50) with TNFα (setting [1]) was found to be 13.7 nM. The IC50 at IRAK4 enzyme was 0.83 nM.

`COC(=O)N[C@H]1CC[C@@H](c2nnc(-c3cnc(-c4ccc5cc(C#N)cnn45)cc3NC3COC3)s2)CC1` [Example 205, methyl ((1s,4s)-4-(5-(6-(3-cyanopyrrolo[1,2-b]pyridazin-7-yl)-4-(oxetan-3-ylamino)pyridin-3-yl)-1,3,4-thiadiazol-2-yl)cyclohexyl)carbamate]: in the test with TNFα (setting [1]), the concentration for a half-maximal effect (EC50) came out at 20.1 nM. Further, on IRAK4 enzyme, the concentration for half-maximal inhibition (IC50) came out at 0.62 nM.

For `CC(=O)N[C@@H]1C[C@H]2COC[C@@H](C1)N2c1nnc(-c2cnc(-c3ccc4cc(C#N)cnn34)cc2NC(C)C)s1` [Example 209, N-((1R,5S,7r)-9-(5-(6-(3-cyanopyrrolo[1,2-b]pyridazin-7-yl)-4-(isopropylamino)pyridin-3-yl)-1,3,4-thiadiazol-2-lyl)-3-oxa-9-azabicyclo[3.3.1]nonan-7-yl)acetamide], the EC50 in the test on TNFα stood at 9.6 nM. In addition, at IRAK4 enzyme, the IC50 worked out at 0.89 nM.

Regarding `CC1(Nc2cc(-c3ccc4cc(C#N)cnn34)ncc2-c2nnc(N3C[C@H]4CC[C@@H](C3)[C@@H]4NC(=O)C(C)(C)O)s2)COC1` [Example 210, N-((1R,5S,8s)-3-(5-(6-(3-cyanopyrrolo[1,2-b]pyridazin-7-yl)-4-((3-methyloxetan-3-yl)amino)pyridin-3-yl)-1,3,4-thiadiazol-2-yl)-3-azabicyclo[3.2.1]octan-8-yl)-2-hydroxy-2-methylpropanamide], the concentration giving a half-maximal response (EC50) with TNFα (setting [1]) worked out at 2.8 nM. Further, the half-maximal inhibitory concentration (IC50) at IRAK4 enzyme came out at 0.84 nM.

As to `CC(C)Nc1cc(-c2ccc3cc(C#N)cnn23)ncc1-c1nnc(C(=O)N[C@H]2C[C@H](O)C2)s1` [Example 213, 5-(6-(3-cyanopyrrolo[1,2-b]pyridazin-7-yl)-4-(isopropylamino)pyridin-3-yl)-N-((1r,3r)-3-hydroxycyclobutyl)-1,3,4-thiadiazole-2-carboxamide], the half-maximal effective concentration (EC50) with TNFα (setting [1]) turned out to be 1830 nM. Also, on IRAK4 enzyme, the IC50 is 0.31 nM.

`CC(C)Nc1cc(-c2ccc3cc(C#N)cnn23)ncc1-c1nnc(C(=O)N[C@H]2C[C@@H](O)C2)s1` [Example 215, 5-(6-(3-cyanopyrrolo[1,2-b]pyridazin-7-yl)-4-(isopropylamino)pyridin-3-yl)-N-((1s,3s)-3-hydroxycyclobutyl)-1,3,4-thiadiazole-2-carboxamide]: in the test with TNFα (setting [1]), the half-maximal effective concentration (EC50) is 3100 nM. For the same compound, at IRAK4 enzyme, the IC50 was 0.7 nM.

Take `CC(C)Nc1cc(-c2ccc3cc(C#N)cnn23)ncc1-c1nnc(C(=O)N2CCC[C@H]2CO)s1` [Example 217, (S)-7-(5-(5-(2-(hydroxymethyl)pyrrolidine-1-carbonyl)-1,3,4-thiadiazol-2-yl)-4-(isopropylamino)pyridin-2-yl)pyrrolo[1,2-b]pyridazine-3-carbonitrile]: the EC50 with TNFα (setting [1]) was 11.1 nM. Besides, the IC50 on IRAK4 enzyme came out at 0.81 nM.

In the case of `CC(C)Nc1cc(-c2ccc3cc(C#N)cnn23)ncc1-c1nnc(C(=O)N[C@H]2C[C@@](C)(O)C2)s1` [Example 218, 5-(6-(3-cyanopyrrolo[1,2-b]pyridazin-7-yl)-4-(isopropylamino)pyridin-3-yl)-N-((1s,3s)-3-hydroxy-3-methylcyclobutyl)-1,3,4-thiadiazole-2-carboxamide], the EC50 in the test with TNFα (setting [1]) came out at 858 nM. Besides, the concentration for half-maximal inhibition (IC50) on IRAK4 enzyme was 1.12 nM.

Regarding `CC(C)Nc1cc(-c2ccc3cc(C#N)cnn23)ncc1-c1nnc(C(=O)N[C@H]2C[C@](C)(O)C2)s1` [Example 219, 5-(6-(3-cyanopyrrolo[1,2-b]pyridazin-7-yl)-4-(isopropylamino)pyridin-3-yl)-N-((1r,3r)-3-hydroxy-3-methylcyclobutyl)-1,3,4-thiadiazole-2-carboxamide], the 50% effective concentration (EC50) in the test with TNFα (setting [1]) was found to be 2070 nM. Also, the half-maximal inhibitory concentration (IC50) on IRAK4 enzyme amounted to 0.68 nM.

For the compound `CC(C)Nc1cc(-c2ccc3cc(C#N)cnn23)ncc1-c1nnc(C(=O)N[C@H]2CC[C@H](O)CC2)s1` [Example 220, 5-(6-(3-cyanopyrrolo[1,2-b]pyridazin-7-yl)-4-(isopropylamino)pyridin-3-yl)-N-((1r,4r)-4-hydroxycyclohexyl)-1,3,4-thiadiazole-2-carboxamide], the EC50 with TNFα (setting [1]) is 131 nM. In addition, the IC50 on IRAK4 enzyme worked out at 1.39 nM.

As usually defined, the EC50 is the midpoint of the concentration-response curve. By IC50 is commonly meant the midpoint of a concentration-inhibition curve.

(Values after US12060351B2, “Thiadiazole IRAK4 inhibitors” (Gilead Sciences, Inc., priority 2018, dated 2024).)
